# US7045343B2, “Sterilization indicator test packs” (3M Innovative Properties Company, priority 1998, dated 2006)
# Assays:
# [1] = tested on: enzyme associated with Bacillus stearothermophilus spores; assay: Rapid enzyme fluorescence readout of dual rapid readout indicators after prevacuum steam sterilization; type: biochemical; conditions: 4-pulse prevacuum steam 121° C.
# Procedure: (§1) The indicators prepared for the Examples were dual rapid readout indicators that provided both a rapid, enzyme-based efficacy test and a confirmatory spore outgrowth test. Spores coated on the carrier strip 16 served as the source of active enzyme whose activity was measured by the rapid enzyme test. These same spores were then incubated in the spore outgrowth portion of the test.
# (§2) Bacillus stearothermophilus, commercially available as ATCC 7953 from American Type Culture Collection, Rockville, Md., was grown overnight (16 hours) at 58° C. in tryptic soy broth. This culture was used to inoculate the surface of agar plates consisting of 8 g/l nutrient broth, 4 g/l yeast extract, 0.1 g/l manganese chloride and 20 g/l agar at pH 7.2. Plates were incubated at 58° C. for 72 hours. Spores were scraped from the plates and suspended in sterile distilled water. The spores were separated from the vegetative debris by centrifuging the suspension at 7000 rpm and 4° C. for 20 minutes. The supernatant was poured off and the spores were resuspended in sterile distilled water. The cleaning procedure was repeated several times. After the final wash, the spores were suspended in sterile distilled water, at a concentration of approximately 1×10^8 spores per milliliter.
# (§3) The spores were then treated with the chemicals identified in Tables 1–5. All chemicals tested were obtained from commercial sources. The spores were centrifuged at 6000 rpm for 10 minutes. The supernatant and coating chemical mixtures were heated at 60–80° C. for several minutes and vortexed to get the material into solution. The spores were then mixed into the sterilant-resistant chemical solution. The sterilant-resistant chemical solution was applied to 5×25 mm, 591 A paper strips (Schleicher & Schuell, Inc., Keene, N.H.) by pipetting 10–15 microliters to each strip for a final population of about 1×10^6 spores per strip. The strips were dried 16 hours at 37° C.
# (§4) The treated spore strips were placed on the bottom of the outer container 12 of the indicator 10 and a barrier was inserted between the spore strip 16 and the inner container 18, which contained enzyme substrate. A […] ( 11/16 inch) disc of polypropylene blown microfiber material, with a weight of 200 g/m^2, commercially available as “THINSULATE™ 200-B brand Thermal Insulation” from 3M Company, St. Paul, Minn., was used as the barrier. The inner container 18 contained 0.67 ml nutrient medium, consisting of 17 g of a bacteriological peptone and a 0.17 g/l of L-alanine, as well as 0.1 g 4-methylumbelliferyl-alpha-D-glucoside, commercially available from Sigma Chemical Company, St. Louis, Mo., dissolved in 200 microliters of N,N-dimethylformamide, and 0.03 g bromocresol purple pH indicator dye, per liter of water. The pH of the enzyme substrate and nutrient medium solution was adjusted to 7.6 with 0.1N sodium hydroxide.
# (§5) Sterilization indicators were made as described above with each of the chemicals and concentrations described in Table 1. Control indicators were made using untreated spores. The indicators were placed in metal instrument trays and exposed at 121° C. in a Getinge Steam Sterilizer (Getinge International, Inc., 1100 Towbin Ave., Lakewood, N.J.) using a 4-pulse prevacuum cycle at 121° C. with a vacuum level of 0.075–0.085 bar and a steam pulse to 1.00 bar for each pulse. Indicators were exposed in the sterilizer for between 7 and 13 minutes. This cycle is depicted in the time-pressure diagram in FIG. 5. After exposure the inner containers containing the enzyme substrate and nutrient medium were crushed and the indicators were incubated at 60° C. The indicators were examined for fluorescence using a 3M™ ATTEST™ Model 190 Rapid Autoreader, commercially available from 3M Company, St. Paul, Minn. Additionally, spore growth, as indicated by a color change from purple to yellow, was determined visually after 168 hours of incubation at 60° C. […]
# [2] = tested on: Bacillus stearothermophilus spores; assay: Spore outgrowth (color change) of indicators after prevacuum steam sterilization; type: cell-based; conditions: 4-pulse prevacuum steam 121° C.
# Procedure: as §1, §2, §3, §4, §5
# [3] = Example 4, 25 mg/ml coating, 7–18 min
# [4] = Example 4, 50 mg/ml coating, 7–18 min
# [5] = Example 4, 100 mg/ml coating, 7–18 min
# [6] = Example 5, 50 mg/ml coating, 7–13 min
# [7] = Example 5, 100 mg/ml coating, 7–13 min
# [8] = Example 1, 5 mg/ml coating, 7–13 min
# [9] = Example 1, 10 mg/ml coating, 7–13 min
# [10] = Example 1, 20 mg/ml coating, 7–13 min
substance,measurement,setting,value
Hexaglyceryl Distearate,accuracy of sterilization indicators compared to indicators made with untreated spores,[1],improved
same,FLUORESCENCE - PERCENT POSITIVE 1 HR,[1]; [3],27.6%
same,FLUORESCENCE - PERCENT POSITIVE 2 HR,[1]; [3],51.7%
same,FLUORESCENCE - PERCENT POSITIVE 3 HR,[1]; [3],58.6%
same,FLUORESCENCE - PERCENT POSITIVE 4 HR,[1]; [3],62.1%
same,FLUORESCENCE - PERCENT POSITIVE 1 HR,[1]; [4],30.3%
same,FLUORESCENCE - PERCENT POSITIVE 2 HR,[1]; [4],57.6%
same,FLUORESCENCE - PERCENT POSITIVE 3 HR,[1]; [4],97%
same,FLUORESCENCE - PERCENT POSITIVE 4 HR,[1]; [4],100%
same,FLUORESCENCE - PERCENT POSITIVE 1 HR,[1]; [5],71.4%
same,FLUORESCENCE - PERCENT POSITIVE 2 HR,[1]; [5],100%
same,FLUORESCENCE - PERCENT POSITIVE 3 HR,[1]; [5],100%
same,FLUORESCENCE - PERCENT POSITIVE 4 HR,[1]; [5],100%
same,NO. GROWTH POSITIVE 168 HR,[2]; [3],29
same,NO. GROWTH POSITIVE 168 HR,[2]; [4],33
same,NO. GROWTH POSITIVE 168 HR,[2]; [5],21
POE(60) Sorbitol Tetraoleate,FLUORESCENCE - PERCENT POSITIVE 1 HR,[1]; [6],0%
same,FLUORESCENCE - PERCENT POSITIVE 2 HR,[1]; [6],0%
same,FLUORESCENCE - PERCENT POSITIVE 3 HR,[1]; [6],0%
same,FLUORESCENCE - PERCENT POSITIVE 4 HR,[1]; [6],0%
same,FLUORESCENCE - PERCENT POSITIVE 1 HR,[1]; [7],0%
same,FLUORESCENCE - PERCENT POSITIVE 2 HR,[1]; [7],0%
same,FLUORESCENCE - PERCENT POSITIVE 3 HR,[1]; [7],0%
same,FLUORESCENCE - PERCENT POSITIVE 4 HR,[1]; [7],0%
same,NO. GROWTH POSITIVE 168 HR,[2]; [6],2
same,NO. GROWTH POSITIVE 168 HR,[2]; [7],2
Hexaglyceryl Monostearate,FLUORESCENCE - PERCENT POSITIVE 1 HR,[1]; [8],0%
same,FLUORESCENCE - PERCENT POSITIVE 2 HR,[1]; [8],32.0%
same,FLUORESCENCE - PERCENT POSITIVE 3 HR,[1]; [8],78.0%
same,FLUORESCENCE - PERCENT POSITIVE 4 HR,[1]; [8],84.0%
same,FLUORESCENCE - PERCENT POSITIVE 5 HR,[1]; [8],90.0%
same,FLUORESCENCE - PERCENT POSITIVE 6 HR,[1]; [8],94.0%
same,FLUORESCENCE - PERCENT POSITIVE 1 HR,[1]; [9],0%
same,FLUORESCENCE - PERCENT POSITIVE 2 HR,[1]; [9],31.8%
same,FLUORESCENCE - PERCENT POSITIVE 3 HR,[1]; [9],63.6%
same,FLUORESCENCE - PERCENT POSITIVE 4 HR,[1]; [9],79.5%
same,FLUORESCENCE - PERCENT POSITIVE 5 HR,[1]; [9],84.1%
same,FLUORESCENCE - PERCENT POSITIVE 6 HR,[1]; [9],86.4%
same,FLUORESCENCE - PERCENT POSITIVE 1 HR,[1]; [10],0%
same,FLUORESCENCE - PERCENT POSITIVE 2 HR,[1]; [10],61.4%
same,FLUORESCENCE - PERCENT POSITIVE 3 HR,[1]; [10],86.4%
same,FLUORESCENCE - PERCENT POSITIVE 4 HR,[1]; [10],95.5%
same,FLUORESCENCE - PERCENT POSITIVE 5 HR,[1]; [10],97.7%
same,FLUORESCENCE - PERCENT POSITIVE 6 HR,[1]; [10],97.7%
same,NO. GROWTH POSITIVE 168 HR,[2]; [8],50
same,NO. GROWTH POSITIVE 168 HR,[2]; [9],44
same,NO. GROWTH POSITIVE 168 HR,[2]; [10],44
Decaglyceryl Monoisostearate,accuracy of sterilization indicators compared to indicators made with untreated spores,[1],improved
same,FLUORESCENCE - PERCENT POSITIVE 1 HR,[1]; [6],33.3%
same,FLUORESCENCE - PERCENT POSITIVE 2 HR,[1]; [6],77.8%
same,FLUORESCENCE - PERCENT POSITIVE 3 HR,[1]; [6],88.9%
same,FLUORESCENCE - PERCENT POSITIVE 4 HR,[1]; [6],88.9%
same,FLUORESCENCE - PERCENT POSITIVE 1 HR,[1]; [7],37.5%
same,FLUORESCENCE - PERCENT POSITIVE 2 HR,[1]; [7],100%
same,FLUORESCENCE - PERCENT POSITIVE 3 HR,[1]; [7],100%
same,FLUORESCENCE - PERCENT POSITIVE 4 HR,[1]; [7],100%
same,NO. GROWTH POSITIVE 168 HR,[2]; [6],9
same,NO. GROWTH POSITIVE 168 HR,[2]; [7],8
Decaglyceryl Monooleate,accuracy of sterilization indicators compared to indicators made with untreated spores,[1],improved
same,FLUORESCENCE - PERCENT POSITIVE 1 HR,[1]; [4],0%
same,FLUORESCENCE - PERCENT POSITIVE 2 HR,[1]; [4],0%
same,FLUORESCENCE - PERCENT POSITIVE 3 HR,[1]; [4],0%
same,FLUORESCENCE - PERCENT POSITIVE 4 HR,[1]; [4],0%
same,FLUORESCENCE - PERCENT POSITIVE 1 HR,[1]; [5],7.7%
same,FLUORESCENCE - PERCENT POSITIVE 2 HR,[1]; [5],23.1%
same,FLUORESCENCE - PERCENT POSITIVE 3 HR,[1]; [5],50%
same,FLUORESCENCE - PERCENT POSITIVE 4 HR,[1]; [5],73.1%
same,FLUORESCENCE - PERCENT POSITIVE 1 HR,[1]; [6],0%
same,FLUORESCENCE - PERCENT POSITIVE 2 HR,[1]; [6],0%
same,FLUORESCENCE - PERCENT POSITIVE 3 HR,[1]; [6],0%
same,FLUORESCENCE - PERCENT POSITIVE 4 HR,[1]; [6],0%
same,FLUORESCENCE - PERCENT POSITIVE 1 HR,[1]; [7],0%
same,FLUORESCENCE - PERCENT POSITIVE 2 HR,[1]; [7],50%
same,FLUORESCENCE - PERCENT POSITIVE 3 HR,[1]; [7],100%
same,FLUORESCENCE - PERCENT POSITIVE 4 HR,[1]; [7],100%
same,NO. GROWTH POSITIVE 168 HR,[2]; [4],10
same,NO. GROWTH POSITIVE 168 HR,[2]; [5],26
same,NO. GROWTH POSITIVE 168 HR,[2]; [6],6
same,NO. GROWTH POSITIVE 168 HR,[2]; [7],2
Hexaglyceryl Monolaurate,accuracy of sterilization indicators compared to indicators made with untreated spores,[1],improved
same,FLUORESCENCE - PERCENT POSITIVE 1 HR,[1]; [4],0%
same,FLUORESCENCE - PERCENT POSITIVE 2 HR,[1]; [4],28.6%
same,FLUORESCENCE - PERCENT POSITIVE 3 HR,[1]; [4],57.1%
same,FLUORESCENCE - PERCENT POSITIVE 4 HR,[1]; [4],71.4%
same,FLUORESCENCE - PERCENT POSITIVE 1 HR,[1]; [5],90.0%
same,FLUORESCENCE - PERCENT POSITIVE 2 HR,[1]; [5],100.0%
same,FLUORESCENCE - PERCENT POSITIVE 3 HR,[1]; [5],100.0%
same,FLUORESCENCE - PERCENT POSITIVE 4 HR,[1]; [5],100.0%
same,NO. GROWTH POSITIVE 168 HR,[2]; [4],7
same,NO. GROWTH POSITIVE 168 HR,[2]; [5],20
POE(15) Glyceryl Monooleate,FLUORESCENCE - PERCENT POSITIVE 1 HR,[1]; [6],0%
same,FLUORESCENCE - PERCENT POSITIVE 2 HR,[1]; [6],0%
same,FLUORESCENCE - PERCENT POSITIVE 3 HR,[1]; [6],0%
same,FLUORESCENCE - PERCENT POSITIVE 4 HR,[1]; [6],0%
same,NO. GROWTH POSITIVE 168 HR,[2]; [6],1
POE(60) Sorbitol Tetrastearate,FLUORESCENCE - PERCENT POSITIVE 1 HR,[1]; [6],0%
same,FLUORESCENCE - PERCENT POSITIVE 2 HR,[1]; [6],0%
same,FLUORESCENCE - PERCENT POSITIVE 3 HR,[1]; [6],0%
same,FLUORESCENCE - PERCENT POSITIVE 4 HR,[1]; [6],0%
same,NO. GROWTH POSITIVE 168 HR,[2]; [6],5
